Results reported in patent US5618726A, “Biodegradable azo dyes” (priority 1994, dated 1997).

Experiments:
[1] = system: P. chrysosporium ligninolytic culture; type: cell-based, Phanerochaete chrysosporium; conditions: ten days of growth; for Dye remaining in the cultures, HPLC / Dye remaining in the cultures, Spectrophotometry: initial 200 mg-per-liter; for Bleaching of cultures: 200 mg-per-liter
Description: Decolorization of dyes in cultures were monitored at their absorption maxima at pH 4.5, or using HPLC. A Spherisorb ODS2 C18 column was used for HPLC analysis with a sequence of DMS buffer at pH 4.5 and acetonitrile as solvents (5 min 100% DMS, 15 min 100% acetonitrile, 18 min 100% acetonitrile, 19 min 100% DMS, 20 min 100% DMS, 5 min postran 100% DMS). Peaks were monitored at 260 and 450 nm. Results from spectrophotometric and HPLC methods were compared.
The initial concentration of dye was 200 mg-per-liter. Numbers represent mg-per-liter of dye remaining in the cultures.

[2] = system: lignin peroxidase (ligninase, LiP); test: Oxidation of azo dyes and veratryl alcohol by pure lignin peroxidase; type: biochemical, Phanerochaete chrysosporium; conditions: for Oxidation by ligninase after VA was added: with veratryl alcohol; for Oxidation by ligninase without VA: without veratryl alcohol
Description: Lignin peroxidase activity was determined spectrophotometrically at room temperature with VA as substrate. One unit (U) of enzyme activity was defined as 1 μmole of veratryl aldehyde formed-per-min at pH 3. Simultaneous oxidations of azo dyes and veratryl alcohol were measured using a Hewlett-Packard 8452 diode array spectrophotometer operated in the kinetic mode by a Vectra PC equipped with MS™-DO/UV-VIS software. Azo dye concentrations were determined by measuring absorbances at appropriate maxima.
After six days of growth, when the specific activity of ligninase reached about 250 U-per-liter, culture filtrates were separated from mycelial debris by filtration. One liter of culture filtrate was concentrated to about 10 ml using an Amicon PM-10 membrane and desalted in 10 mM sodium acetate buffer (pH 6) using a Sephadex G25 NAP10 column. Ligninase isoenzyme was separated from Mn-dependent peroxidases using a Pharmacia fast protein liquid chromatography system equipped with a Mono Q HR 5/5 column. In this study isoforms H2 and H8 were used.
In vitro studies were limited to dyes 24 and 28. […] FIGS. 6A and 7A show the simultaneous oxidation of azo dyes 24 and 28, respectively, and VA by ligninase. Without VA, azo dye oxidation was limited and terminated more rapidly than in the presence of VA (FIGS. 6B and 7B). When a dye was present in a reaction mixture, the rate of VA oxidation decreased due to an apparent competition for LiPI between these two compounds. The oxidation rate of VA recovered when the azo dye oxidation was completed (FIG. 8). The maximal rate of VA oxidation was about 159 AU (absorption change per-min-per-ml of ligninase solution). Wavelengths of 310 nm for VA, 506 nm for dye 24, and 430 nm for dye 28 oxidations were used in monitoring substrate removal. The oxidation of azo dyes is stimulated by VA in high (200 μM) and low (20 μM) H2 O2 concentrations.

S. diastaticus A12 = type: cell-based; conditions: streptomyces diastaticus a12 culture, 336 h
Excerpt: (§1) Microbiol., 1984, 130:2905-2913.
(§2) Replicate sterile controls also were run in each experiment.

S. diastaticus A13 = type: cell-based; conditions: streptomyces diastaticus a13 culture, 336 h
Excerpt: as §1, §2

S. rochei A10 = type: cell-based; conditions: streptomyces rochei a10 culture, 336 h
Excerpt: as §1, §2

[3] = system: S. chromofuscus A11 extracellular peroxidase; test: Oxidation of azo dyes by S. chromofuscus A11 crude enzyme preparation; type: biochemical, Streptomyces chromofuscus A11; conditions: pH 8, 37° C., H2O2
Outline: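 Enzyme from 48 h S. chromofuscus A11 culture supernatant, concentrated, ammonium sulfate-precipitated, dialyzed in 20 mM HEPES pH 8; yellow Sephadex G-25 fraction used. Reaction started with 100 μl 50 mM H2O2, followed 1 min at 37° C; controls without H2O2 or with 25 μM KCN.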

Mn(II)-peroxidase = test: Oxidation of dyes by P. chrysosporium Mn(II)-peroxidase; type: biochemical, Phanerochaete chrysosporium; conditions: crude enzyme, conditions specific for Mn(II)-peroxidase
[4] = target: T1, horseradish peroxidase type II (Armoracia rusticana, UniProt P00433); test: Oxidation of azo dyes by horseradish peroxidase preparation; type: biochemical; conditions: pH 8, 37° C., H2O2
T1 sequence (P00433 31-338): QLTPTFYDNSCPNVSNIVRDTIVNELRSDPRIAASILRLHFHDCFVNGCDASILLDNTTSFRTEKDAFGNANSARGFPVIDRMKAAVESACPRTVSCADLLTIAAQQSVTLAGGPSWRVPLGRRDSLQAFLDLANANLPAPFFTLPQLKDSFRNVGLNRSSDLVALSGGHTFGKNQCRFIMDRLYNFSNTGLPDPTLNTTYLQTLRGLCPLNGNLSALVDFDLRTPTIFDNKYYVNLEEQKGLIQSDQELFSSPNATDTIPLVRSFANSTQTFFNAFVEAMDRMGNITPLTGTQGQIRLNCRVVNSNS
Description: The reaction was started with the addition of 100 μl of 50 mM H2 O2 and was followed for 1 min at 37° C. Controls were run with no addition of H2 O2 or with the addition of the hemeperoxidase inhibitor KCN (final concentration 25 μM).

ligninase = test: Oxidation of dyes by P. chrysosporium ligninase (crude preparation); type: biochemical, Phanerochaete chrysosporium; conditions: for Oxidation rate of azo dyes, P. chrysosporium Ligninase: crude enzyme, conditions specific for ligninase
Outline: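 Crude P. chrysosporium ligninase oxidation of dyes, assayed by a previously reported method; conditions as for acid yellow 9, readings every 30 s for up to 15 minutes.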

S. chromofuscus A11 = conditions: for Degradation (%) after Streptomyces cultivation, strain A11: streptomyces chromofuscus a11 culture, 336 h; for Decolorization of growth medium by S. chromofuscus A11: both 50 and 100 ppm
Description: as §1, §2
The Streptomyces were grown on the same media and under the same conditions as previously described. […] Thus, the spectrophotometric assays for substrates 1-12 were carried out at their specific isobastic points. Degradation was calculated as percent of substrates removed from culture broth, considering the evaporation factor (around 10%).

[5] = system: Phanerochaete chrysosporium; test: Substrate removal / decolorization by P. chrysosporium culture; type: cell-based; conditions: for % Decolorization, P. chrysosporium: 14 days
Description: Environ. Microbiol., 1981, 42:290-296), with the addition of 75 mg adenine (6-aminopurine) and 27 mg L-phenylalanine-per-liter. This addition accelerated the growth of the fungus without inhibiting ligninase activity. […] […] Cultures were incubated at 37° C. for 7 to 15 days with shaking (250 rpm). Solid agar media were also employed.

[6] = beginning concentration 100 ppm
[7] = beginning concentration 150 ppm
[8] = beginning concentration 200 ppm
[9] = beginning concentration 300 ppm

Degradation (%) after Streptomyces cultivation, strain A12 (S. diastaticus A12)	Degradation (%) after Streptomyces cultivation, strain A13 (S. diastaticus A13)	Degradation (%) after Streptomyces cultivation, strain A10 (S. rochei A10)	Oxidation rate of azo dyes, S. chromofuscus peroxidase [3]	Oxidation rate of azo dyes, P. chrysosporium Mn-peroxidase (Mn(II)-peroxidase)	Oxidation rate of azo dyes, Horseradish peroxidase [4]	Oxidation rate of azo dyes, P. chrysosporium Ligninase (ligninase)	Degradation (%) after Streptomyces cultivation, strain A11 (S. chromofuscus A11)	% Decolorization, P. chrysosporium ([5]; initial concn 150 ppm)	% Decolorization, P. chrysosporium ([5]; initial concn 300 ppm)	Structure (SMILES)	Concentration of substrate after ten days cultivation with P. chrysosporium [5, 6]	Concentration of substrate after ten days cultivation with P. chrysosporium [5, 7]	Concentration of substrate after ten days cultivation with P. chrysosporium [5, 8]	Concentration of substrate after ten days cultivation with P. chrysosporium [5, 9]	Decolorization of growth medium by S. chromofuscus A11 (S. chromofuscus A11)	other results
1%	1%	2%	0.13 μmoles per minute per ml	0.26 μmoles per minute per ml	0.10 μmoles per minute per ml	0.88 μmoles per minute per ml	5%	92%	88%	O=S(=O)(O)c1ccc(N=Nc2ccc(O)c(Cl)c2)cc1 [compound 13]	7.734 ppm	20.776 ppm	28.216 ppm	20.096 ppm	–	–
3%	8%	9%	2.00 μmoles per minute per ml	3.54 μmoles per minute per ml	11.94 μmoles per minute per ml	0.00 μmoles per minute per ml	20%	90%	87%	Cc1cc(N=Nc2ccc(S(=O)(=O)O)cc2)ccc1O [compound 5]	6.084 ppm	9.870 ppm	14.500 ppm	22.680 ppm	significantly decolorized	–

Second part, the molecule before the results:

Structure (SMILES)	Degradation (%) after Streptomyces cultivation, strain A12 (S. diastaticus A12)	Degradation (%) after Streptomyces cultivation, strain A13 (S. diastaticus A13)	Degradation (%) after Streptomyces cultivation, strain A10 (S. rochei A10)	Oxidation rate of azo dyes, S. chromofuscus peroxidase [3]	Oxidation rate of azo dyes, P. chrysosporium Mn-peroxidase (Mn(II)-peroxidase)	Oxidation rate of azo dyes, Horseradish peroxidase [4]	Oxidation rate of azo dyes, P. chrysosporium Ligninase (ligninase)	Degradation (%) after Streptomyces cultivation, strain A11 (S. chromofuscus A11)	% Decolorization, P. chrysosporium ([5]; initial concn 150 ppm)	% Decolorization, P. chrysosporium ([5]; initial concn 300 ppm)	Concentration of substrate after ten days cultivation with P. chrysosporium [5, 6]	Concentration of substrate after ten days cultivation with P. chrysosporium [5, 7]	Concentration of substrate after ten days cultivation with P. chrysosporium [5, 8]	Concentration of substrate after ten days cultivation with P. chrysosporium [5, 9]	Decolorization of growth medium by S. chromofuscus A11 (S. chromofuscus A11)	other results
O=S(=O)(O)c1ccc(N=Nc2ccc(N=Nc3c(O)ccc4ccccc34)c(S(=O)(=O)O)c2)cc1 [compound 24]	–	–	–	–	–	–	–	–	–	–	–	–	–	–	–	Dye remaining in the cultures, HPLC [1]: 4.43 mg-per-liter; Dye remaining in the cultures, Spectrophotometry [1]: 1.11 mg-per-liter; Bleaching of cultures [1]: completely bleached; Oxidation by ligninase after VA was added [2]: total decolorization; Oxidation by ligninase without VA [2]: limited extent
O=C(O)c1nn(-c2ccc(S(=O)(=O)O)cc2)c(O)c1N=Nc1ccc(S(=O)(=O)O)cc1 [compound 28]	–	–	–	–	–	–	–	–	–	–	–	–	–	–	–	Dye remaining in the cultures, HPLC [1]: 3.00 mg-per-liter; Dye remaining in the cultures, Spectrophotometry [1]: 2.42 mg-per-liter; Bleaching of cultures [1]: completely bleached; Oxidation by ligninase after VA was added [2]: total decolorization; Oxidation by ligninase without VA [2]: limited extent
COc1cc(N=Nc2ccc(S(=O)(=O)O)cc2)ccc1O [compound 2]	43%	18%	77%	3.68 μmoles per minute per ml	8.19 μmoles per minute per ml	18.19 μmoles per minute per ml	0.72 μmoles per minute per ml	73%	97%	94%	2.493 ppm	6.350 ppm	10.068 ppm	7.318 ppm	–	Oxidation / decolorization by ligninase (ligninase; pH3, 0.2 mM hydrogen peroxide, 15-minute incubation): not detected; Degradation by Phanerochaete fungus ([5]; growth period of seven days, starting dye 150-200 ppm (FIG. 3), 10080 min): 90%
Cc1cc(N=Nc2ccc(S(=O)(=O)O)cc2)cc(C)c1O [compound 3]	39%	10%	68%	17.20 μmoles per minute per ml	16.37 μmoles per minute per ml	30.68 μmoles per minute per ml	0.42 μmoles per minute per ml	73%	96%	97%	0.358 ppm	1.223 ppm	1.894 ppm	114.772 ppm	significantly decolorized	–
COc1ccc(CO)cc1OC [Veratryl alcohol, 3,4-dimethoxy benzyl alcohol, reference compound]	–	–	–	–	–	–	–	–	–	–	–	–	–	–	–	Maximal rate of VA oxidation by ligninase ([2]; absorption change per-min-per-ml of ligninase solution, 310 nm): about 159 AU
COc1cc(N=Nc2ccc(S(=O)(=O)O)cc2)cc(OC)c1O [compound 4]	39%	8%	79%	15.19 μmoles per minute per ml	14.33 μmoles per minute per ml	27.04 μmoles per minute per ml	0.22 μmoles per minute per ml	83%	93%	92%	1.637 ppm	3.763 ppm	4.218 ppm	16.323 ppm	significantly decolorized	–
